The values below come from publication PMC8023571, “Multiple Applications of a Novel Biarsenical Imaging Probe in Fluorescence and PET Imaging of Melanoma” (Bioconjugate Chemistry, 2021).

Data set [1] has as its system Cys-Cys-Pro-Gly-Cys-Cys (CCPGCC) sequence. The note with it: four As-S bonds with CCPGCC; cited from earlier work. An excerpt: In 1998, Griffin et al. described a system for fluorescent imaging using a biarsenical fluorescein analogue system now widely known as FlAsH.[6] This system relied on a reversible soft Lewis acid–base reaction between As(III) and S(-II) of cysteine. […] Since this sequence is uncommon in natural proteins, it requires installation via genetic alteration of the organism where the protein is expressed; in small peptides, it can be introduced during chemical synthesis. However, as ...

Data set [2] can be described thus: PET measurement of organ distribution in a nonhuman primate. It counts as in vivo, cynomolgus monkey. The settings on record: i.v.; NHP. The protocol: Second, high background affinity to any organ would severely hamper protein imaging in that organ. In order to test if 1 fulfilled these prerequisites, a […] dynamic PET measurement was performed after an intravenous injection of [^11C]CH3-1, with the upper body of a nonhuman primate subject (NHP) in the field of view. […] The high radioactivity in the liver and the low uptake in the brain likely prohibits the use of 1 for pretargeting in these organs. […] Blood samples were taken at multiple time points during the NHP PET measurements for the purpose of analyzing radiolabeled metabolites in plasma.
Figure 3 (a) Summation PET image of NHP showing the distribution of [^11C]CH3-1 from 3 to 60 min after intravenous injection. (b) Time–activity curves showing organ distribution following intravenous injection of [^11C]CH3-1.
Image- and Statistical Analysis
The acquired list mode data was reconstructed into […] (93 min scan = 4x10 s, 4x20 s, 4x60 s, 7x180 s, 11x360 s). The image reconstruction was made with a fully 3-dimensional maximum-likelihood expectation maximization algorithm (MLEM) with 20 iterations, without scatter and attenuation correction. […] The regional uptake values were expressed as standard uptake value (SUV), which normalizes for injected radioactivity and body weight. […]

Turning to `O=C(O)c1ccccc1-c1c2ccc(=O)c([As]3SCCS3)c-2oc2c([As]3SCCS3)c(O)ccc12` [FlAsH], the binding constant entry in data set [1] is given as “high binding constant”.

In the case of `O=c1cc2oc3c([As]4SCCS4)c(O)ccc3c(-c3ccc(F)cc3)c-2cc1[As]1SCCS1` [compound 1], the “background radioactivity in lungs and heart” value in data set [2] was “intermediate background radioactivity”.
